The subject of assay [1] is Moraxella catarrhalis. Nature of the assay: In vitro antibacterial activity against Moraxella catarrhalis strains 30607 and 30603 (MC); range is 32->64. The class given is functional.
The subject of assay [2] is Haemophilus influenzae. Put plainly: In vitro antibacterial activity against Haemophilia influenzae strains ATCC 30063 and ATCC 31517. The class given is functional.
Assay [3] deals with Staphylococcus aureus. Put plainly: In vitro antibacterial activity against linezolid-resistant Staphylococcus aureus ATCC 29213 (LRSA). It is filed as functional.
For assay [4], the system named is Enterococcus faecium. Nature of the assay: In vitro antibacterial activity against vancomycin-resistant Enterococcus faecium UC12712 (VRE).
In assay [5] the test system is Staphylococcus aureus. Nature of the assay: In vitro antibacterial activity against Staphylococcus aureus strains UC12673, UC9213, ATCC 29213, and UC9271 (SA); range is 16-32. The class given is functional.
The subject of assay [6] is Staphylococcus epidermidis. Nature of the assay: In vitro antibacterial activity against Staphylococcus epidermidis strains UC12084, 30031, and CDC-CNS90 (SE). It is filed as functional.
Assay [7] deals with Staphylococcus aureus. Put plainly: In vitro antibacterial activity against Staphylococcus aureus strains UC12673, UC9213, ATCC 29213, and UC9271 (SA); range is 2-4. The class given is functional.
The subject of assay [8] is Mus musculus. Nature of the assay: In vivo Efficacy of compound after peroral administration in mouse. The class given is functional. As to conditions: po.
For assay [9], the system named is Staphylococcus epidermidis. Nature of the assay: In vitro antibacterial activity against Staphylococcus epidermidis strains UC12084, 30031, and CDC-CNS90 (SE); range is 1-2. The class given is functional.
Assay [10] has as its system Moraxella catarrhalis. Nature of the assay: In vitro antibacterial activity against Moraxella catarrhalis strains 30607 and 30603 (MC). The class given is functional.
Assay [11] concerns Haemophilus influenzae. Nature of the assay: In vitro antibacterial activity against Haemophilia influenzae strains 30063 and ATCC 31517 (HI); range is 4-8. It is filed as functional.
Assay [12] concerns Streptococcus pneumoniae. Nature of the assay: In vitro antibacterial activity against Streptococcus pneumoniae strains ATCC 6305 and 31573 (SPN); range is 0.5-1.
The subject of assay [13] is Moraxella catarrhalis. Put plainly: In vitro antibacterial activity against Moraxella catarrhalis strains 30607 and 30603 (MC); range is 8-16. The class given is functional.
Assay [14] concerns Streptococcus pneumoniae. Nature of the assay: In vitro antibacterial activity against Streptococcus pneumoniae strains ATCC6305 and 31573 (SPN).
Assay [15] concerns Staphylococcus aureus. Nature of the assay: In vitro antibacterial activity against Staphylococcus aureus strains UC12673, UC9213, ATCC 29213, and UC9271 (SA); range is 4-8. It is filed as functional.
Assay [16] deals with Staphylococcus epidermidis. Nature of the assay: In vitro antibacterial activity against Staphylococcus epidermidis strains UC12084, 30031, and CDC-CNS90 (SE); range is 4-8. It is filed as functional.
Assay [17] deals with Streptococcus pneumoniae. Nature of the assay: In vitro antibacterial activity against Streptococcus pneumoniae strains ATCC 6305 and 31573 (SPN); range is 4-8.
Assay [18] deals with Staphylococcus aureus. Put plainly: In vitro antibacterial activity against Staphylococcus aureus strains UC12673, UC9213, ATCC 29213, and UC9271 (SA); range is 8-32. The class given is functional.
Assay [19] relates to Haemophilus influenzae. Nature of the assay: In vitro antibacterial activity against Haemophilia influenzae strains 30063 and ATCC 31517 (HI); range is 32-64. The class given is functional.
Assay [20] deals with Staphylococcus aureus. Put plainly: In vitro antibacterial activity against Staphylococcus aureus strains UC12673, UC9213, ATCC 29213, and UC9271 (SA). The class given is functional.
Assay [21] relates to Staphylococcus epidermidis. Put plainly: In vitro antibacterial activity against Staphylococcus epidermidis strains UC12084, 30031, and CDC-CNS90 (SE); range is 2-4. It is filed as functional.
Assay [22] deals with Haemophilus influenzae. Put plainly: In vitro antibacterial activity against Haemophilia influenzae strains 30063 and ATCC 31517 (HI); range is 8-32. The class given is functional.
Assay [23] relates to Staphylococcus epidermidis. Nature of the assay: In vitro antibacterial activity against Staphylococcus epidermidis strains UC12084, 30031, and CDC-CNS90 (SE); range is 0.5-1. The class given is functional.
Assay [24] concerns Haemophilus influenzae. Put plainly: In vitro antibacterial activity against Haemophilia influenzae strains 30063 and ATCC 31517 (HI); range is 8-16. The class given is functional.
Assay [25] concerns Mus musculus. Nature of the assay: In vivo Efficacy of compound after peroral administration to protect the Staphylococcus aureus mouse septicemia model. The class given is functional. The note with it: po.

Converted amounts (≈) assume the structure as drawn.

As for `O=C(NC[C@H]1CN(c2ccc(N3CC[S+]([O-])CC3)c(F)c2)C(=O)O1)c1csnn1`, the MIC in assay [1] is 32 µg/mL (≈ 72.8 µM); in assay [2], 64 µg/mL (≈ 146 µM); in assay [3] it was over 64 µg/mL; in assay [4] it was 16 µg/mL (≈ 36.4 µM); in assay [5], 16 µg/mL (≈ 36.4 µM); in [6], 8 µg/mL (≈ 18.2 µM).

Consider `O=C(CF)NC[C@H]1CN(c2ccc(C3CC[S+]([O-])CC3)c(F)c2)C(=O)O1` (stereo partly specified), for which the MIC in assay [7] amounted to 2 µg/mL (≈ 5.18 µM); in assay [9], 1 µg/mL (≈ 2.59 µM); in assay [3] it was 32 µg/mL (≈ 82.8 µM); in assay [10], 8 µg/mL (≈ 20.7 µM); in assay [4] it was 4 µg/mL (≈ 10.4 µM); in [11], 4 µg/mL (≈ 10.4 µM). For the same molecule, the MIC in assay [12] is 0.5 µg/mL (≈ 1.29 µM). The ED50 in assay [8] worked out at 3.75 mg/kg.

For `O=C(NC[C@H]1CN(c2ccc(N3CC[S+]([O-])CC3)c(F)c2)C(=O)O1)C1CC1`, the MIC worked out at 32 µg/mL (≈ 80.9 µM) in [2]; 8 µg/mL (≈ 20.2 µM) in [13]; 64 µg/mL (≈ 162 µM) in assay [3]; 4 µg/mL (≈ 10.1 µM) in assay [4]; 16 µg/mL (≈ 40.5 µM) in assay [5]; 4 µg/mL (≈ 10.1 µM) in assay [6].

As for `CC(=O)NC[C@H]1CN(c2ccc(N3CC[S+]([O-])CC3)c(F)c2)C(=O)O1`, the MIC in [14] was 1 µg/mL (≈ 2.71 µM); in assay [15] it was 4 µg/mL (≈ 10.8 µM); in [9], 1 µg/mL (≈ 2.71 µM); in assay [3] it was over 64 µg/mL; in assay [10] it was 4 µg/mL (≈ 10.8 µM); in assay [4], 2 µg/mL (≈ 5.41 µM). Also, the MIC in assay [11] was over 4 µg/mL.

Consider `CC(=O)Nc1ccc(/C=C/C(=O)NC[C@H]2CN(c3ccc(N4CC[S+]([O-])CC4)c(F)c3)C(=O)O2)cc1`, for which the MIC in assay [15] is 4 µg/mL (≈ 7.77 µM); in assay [9], 1 µg/mL (≈ 1.94 µM); in assay [2], over 64 µg/mL; in assay [3], over 64 µg/mL; in assay [10], 16 µg/mL (≈ 31.1 µM); in assay [4], 8 µg/mL (≈ 15.5 µM).

On to `O=C(NC[C@H]1CN(c2ccc(N3CCS(=O)(=O)CC3)c(F)c2)C(=O)O1)c1csnn1`, for which the MIC in [16] worked out at 4 µg/mL (≈ 8.78 µM); in assay [17] it was 4 µg/mL (≈ 8.78 µM); in [18] it was 8 µg/mL (≈ 17.6 µM); in assay [19], 32 µg/mL (≈ 70.3 µM); in assay [3], 32 µg/mL (≈ 70.3 µM); in [10], 32 µg/mL (≈ 70.3 µM). In [4], this molecule gave an MIC of 16 µg/mL (≈ 35.1 µM).

On to `CC(=O)NC[C@H]1CN(c2ccc(N3CCS(=O)(=O)CC3)c(F)c2)C(=O)O1`, for which the MIC is 64 µg/mL (≈ 166 µM) in assay [3]; 4 µg/mL (≈ 10.4 µM) in assay [10]; 2 µg/mL (≈ 5.19 µM) in assay [4]; 4 µg/mL (≈ 10.4 µM) in assay [20]; 4 µg/mL (≈ 10.4 µM) in assay [11]; 1 µg/mL (≈ 2.59 µM) in assay [6]. This molecule came in with an MIC in assay [12] of 0.5 µg/mL (≈ 1.3 µM).

Consider `O=C1O[C@@H](CNC(=O)C(F)(F)F)CN1c1ccc(C2CCS(=O)(=O)CC2)c(F)c1`, for which the MIC in assay [21] was 2 µg/mL (≈ 4.56 µM); in assay [18] it was 8 µg/mL (≈ 18.2 µM); in assay [3], 64 µg/mL (≈ 146 µM); in [22], over 8 µg/mL; in assay [10], 8 µg/mL (≈ 18.2 µM); in assay [4], 8 µg/mL (≈ 18.2 µM).

Regarding `CSCC(=O)NC[C@H]1CN(c2ccc(C3CCS(=O)(=O)CC3)c(F)c2)C(=O)O1`, the MIC in [15] is 4 µg/mL (≈ 9.29 µM); in assay [3], 64 µg/mL (≈ 149 µM); in assay [22], 8 µg/mL (≈ 18.6 µM); in assay [10] it was 8 µg/mL (≈ 18.6 µM); in assay [4] it was 4 µg/mL (≈ 9.29 µM); in assay [6], 2 µg/mL (≈ 4.65 µM).

As to `O=C1O[C@@H](CNC(=O)C(F)(F)F)CN1c1ccc(C2CC[S+]([O-])CC2)c(F)c1` (stereo partly specified), the MIC in assay [21] came out at 2 µg/mL (≈ 4.73 µM); in [3], 32 µg/mL (≈ 75.8 µM); in assay [22] it was 8 µg/mL (≈ 18.9 µM); in assay [10], 8 µg/mL (≈ 18.9 µM); in assay [4] it was 4 µg/mL (≈ 9.47 µM); in assay [20], 8 µg/mL (≈ 18.9 µM).

As for `CC(=O)NC[C@H]1CN(c2ccc(C3CC[S+]([O-])CC3)c(F)c2)C(=O)O1` (stereo partly specified), the MIC is 0.5 µg/mL (≈ 1.36 µM) in assay [23]; 0.5 µg/mL (≈ 1.36 µM) in assay [14]; 8 µg/mL (≈ 21.7 µM) in [2]; over 8 µg/mL in assay [13]; 64 µg/mL (≈ 174 µM) in assay [3]; 2 µg/mL (≈ 5.43 µM) in assay [4]. This molecule also returned an MIC in [20] of 4 µg/mL (≈ 10.9 µM).

As to `CC(=O)NC[C@H]1CN(c2ccc(N3CCOCC3)c(F)c2)C(=O)O1` [LINEZOLID], the results for the MIC in assay [24], in assay [9] and in assay [3] were over 8 µg/mL, 1 µg/mL (≈ 2.96 µM) and 64 µg/mL (≈ 190 µM), respectively. This molecule came in with a 50% effective dose (ED50) in assay [25] of 5 mg/kg.

As usually defined, the ED50 is the dose that gives a 50% effect, or the effect in half of the subjects.

(Values after ChEMBL document CHEMBL1136459, “New antibacterial tetrahydro-4(2H)-thiopyran and thiomorpholine S-oxide and S,S-dioxide phenyloxazolidinones” (Bioorg Med Chem Lett, 2003).)
